System: Mycosphaerella graminicola
Experiment: Cell test on Mycosphaerella graminicola
Format: cell-based
Conditions: under similar conditions (6 ppm, liquid medium, OD 620 nm); comparison compounds of the prior art
Experimental: The growth of Mycosphaerella graminicola is performed in a bactopeptone based liquid medium at 20° C. under shaking (120 rpm) during 72 hours. The bactopeptone based medium is prepared by mixing 14.6 grams of D-glucose, 1.4 grams of Yeast extract and 7.1 g of bacteriological peptone (OXOID ref. LP0037) in 1 liter of demineralized water. The medium is sterilized by autoclave 15 minutes at 121° C. After 72 hours, pre-culture of Mycosphaerella graminicola is recovered and the optic density (OD) at 620 nm is adjusted with the bactopeptone based medium at 0.5. The compounds are dissolved in DMSO and added to sterile liquid bactopeptone medium at a concentration of 6 ppm. The medium is inoculated with the pre-culture of Mycosphaerella graminicola by a dilution of 10 times of the pre-culture. The efficacy of the compounds is assessed by OD measurement at 620 nm after 4 days at 20° C. in comparison with a control.

SMILES | activity
COc1ccnc(C(=O)NCCC(c2ccccc2)c2ccccc2)c1O [compound 16, N-(3,3-diphenylpropyl)-3-hydroxy-4-methoxypyridine-2-carboxamide] | did not show any activity
COc1ccc(CCCNC(=O)c2c(-c3ccc(Cl)cc3)noc2C)cc1OC [compound 60, 3-(4-chlorophenyl)-N-[3-(3,4-dimethoxyphenyl)propyl]-5-methylisoxazole-4-carboxamide] | did not show any activity

Reference: patent US8283349B2, “Fungicide N-(3-phenylpropyl) carboxamide derivatives” (Bayer Cropscience AG, priority 2007, dated 2012)
